Data published in ChEMBL document CHEMBL1649297, “Mutations in ribosomal protein L3 are associated with oxazolidinone resistance in staphylococci of clinical origin” (2009).
In brackets after ≈: the same amount, converted by molar mass.

Assays:
Assay type in all cases: functional
Staphylococcus aureus [1] = assay: Antibacterial activity against Staphylococcus aureus NARSA NRS127 harboring rplC T433 to T435 and L3 Ser145 deletion mutant by CLSI broth microdilution assay
[2] = tested on: Staphylococcus epidermidis; assay: Antibacterial activity against Staphylococcus epidermidis 1653059 harboring rplC G469A/C470G, L3 Ala157Arg and 23S rRNA G2447T mutant by CLSI broth microdilution assay
Staphylococcus aureus [3] = assay: Antibacterial activity against methicillin-susceptible Staphylococcus aureus ATCC 29213 by CLSI broth microdilution assay
[4] = tested on: Staphylococcus epidermidis; assay: Antibacterial activity against […] Staphylococcus epidermidis ATCC 12228 by CLSI broth microdilution assay

O=C(N[C@H](CO)[C@H](O)c1ccc([N+](=O)[O-])cc1)C(Cl)Cl [CHLORAMPHENICOL]
MIC (Staphylococcus aureus [1]): 8 µg/mL (≈ 24.8 µM)
MIC [2]: 2 µg/mL (≈ 6.19 µM)
MIC (Staphylococcus aureus [3]): 8 µg/mL (≈ 24.8 µM)
MIC [4]: 1 µg/mL (≈ 3.09 µM)

CC(=O)NC[C@H]1CN(c2ccc(N3CCOCC3)c(F)c2)C(=O)O1 [LINEZOLID]
MIC (Staphylococcus aureus [1]): 8 µg/mL (≈ 23.7 µM)
MIC [2]: 256 µg/mL (≈ 759 µM)
MIC [4]: 1 µg/mL (≈ 2.96 µM)

Cn1nnc(-c2ccc(-c3ccc(N4C[C@H](CO)OC4=O)cc3F)cn2)n1 [TEDIZOLID]
MIC (Staphylococcus aureus [1]): 1 µg/mL (≈ 2.7 µM)
MIC [2]: 16 µg/mL (≈ 43.2 µM)
MIC (Staphylococcus aureus [3]): 0.5 µg/mL (≈ 1.35 µM)
MIC [4]: 0.25 µg/mL (≈ 0.675 µM)

C=C[C@]1(C)C[C@@H](OC(=O)CSCCN(CC)CC)[C@]2(C)[C@H](C)CC[C@]3(CCC(=O)[C@H]32)[C@@H](C)[C@@H]1O [TIAMULIN]
MIC (Staphylococcus aureus [1]): 4 µg/mL (≈ 8.1 µM)
MIC [2]: 8 µg/mL (≈ 16.2 µM)
MIC (Staphylococcus aureus [3]): 1 µg/mL (≈ 2.03 µM)
MIC [4]: 0.5 µg/mL (≈ 1.01 µM)
